In US7713994B2 (Wyeth LLC, priority 2005, dated 2010):
Where a name gives a salt, the structure may show the parent alone. Read-outs that look alike come from different tables or passages of the source.

Legend:
[1] = system: BT474; assay: Cytotoxicity assay (SRB), BT474; type: cell-based
How it was run: (§1)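 Protein staining with sulforhodamine B after cold TCA fixation served as the survival endpoint (A540, relative to untreated cells). Before staining, cells were incubated with compound at 37 °C, 7% CO2 for 3 days, or 6 days for BT474.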

[2] = system: HCT-116; assay: Cytotoxicity assay (SRB), HCT-116; type: cell-based; conditions: Homo sapiens, HCT-116, 72 h, HCT116 cells, SRB, read-out: In Vitro Cellular Activity IC50 HCT116
How it was run: as §1

[3] = system: LoVo; assay: Cytotoxicity assay (SRB), LoVo; type: cell-based; conditions: Homo sapiens, LoVo, 72 h, LoVo cells, SRB, read-out: In Vitro Cellular Activity IC50 LOVO
How it was run: as §1

[4] = system: MCF-7; assay: Cytotoxicity assay (SRB), MCF-7; type: cell-based; conditions: Homo sapiens, MCF7, 72 h, MCF-7 cells, SRB, read-out: In Vitro Cellular Activity IC50 MCF-7
How it was run: as §1

[5] = Homo sapiens, BT-474, 144 h, BT474 cells, SRB, 6 days; read-out: In Vitro Cellular Activity IC50 BT474

melting point	SMILES	other results
264 to 267 °C	COc1cc2c(cc1Br)/C(=C/Nc1ccc(CN3CCCCC3)cc1)C(=O)NC2=O [Example 252, 6-Bromo-7-methoxy-4-[(4-piperidin-1-ylmethyl-phenylamino)-methylene]-4H-isoquinoline-1,3-dione]	IC50 [1, 5]: 15 µM; IC50 ([2]; three days): 14 µM; IC50 ([3]; three days): 21 µM; IC50 ([4]; three days): 33 µM
227 to 228 °C	O=C1NC(=O)c2ccc(Br)cc2/C1=C/NCc1ccc2c(c1)OCO2 [Example 109, (4Z)-4-{[(1,3-Benzodioxol-5-ylmethyl)amino]methylene}-6-bromoisoquinoline-1,3(2H,4H)-dione]	IC50 [1, 5]: 34.8 µM; IC50 ([2]; three days): 16.8 µM; IC50 ([3]; three days): > 50 µM; IC50 ([4]; three days): > 50 µM
297 to 298 °C	COc1ccc(CN/C=C2\C(=O)NC(=O)c3cc(Br)ccc32)cc1O [Example 135, (4Z)-7-Bromo-4-{[(3-hydroxy-4-methoxybenzyl)amino]methylene}isoquinoline-1,3(2H,4H)-dione]	IC50 [1, 5]: > 50 µM; IC50 ([2]; three days): 31 µM; IC50 ([3]; three days): > 50 µM; IC50 ([4]; three days): > 50 µM
234 to 235 °C	O=C1NC(=O)c2ccc(Br)cc2/C1=C/NCc1ccc(Cl)cc1 [Example 53, (4Z)-6-Bromo-4-{[(4-chlorobenzyl)amino)methylene}isoquinoline-1,3(2H,4H)-dione]	IC50 [1, 5]: 37 µM; IC50 ([2]; three days): 32 µM; IC50 ([3]; three days): > 50 µM; IC50 ([4]; three days): > 50 µM
293 to 297 °C (dec.)	O=C1NC(=O)c2ccc(Br)cc2C1=CNCc1cc(=O)c(O)co1 [Example 313, 6-Bromo-4-{[(5-hydroxy-4-oxo-4H-pyran-2-ylmethyl)-amino]-methylene}-4H-isoquinoline-1,3-dione]	IC50 [1, 5]: 43 µM; IC50 ([2]; three days): 27 µM; IC50 ([3]; three days): 41 µM; IC50 ([4]; three days): 22 µM
317 to 318 °C (dec.)	O=C1NC(=O)c2ccc(-n3cccc3)cc2/C1=C/Nc1ccc(Br)cn1 [Example 444, (Z)-4-((5-Bromopyridin-2-ylamino)methylene)-6-(1H-pyrrol-1-yl)isoquinoline-1,3(2H,4H)-dione]	IC50 ([1]; Homo sapiens, BT-474, 144 h, BT474 cells, 6 days, SRB; read-out: In Vitro Cellular Activity IC50 BT474): 5.2 µM; IC50 ([2]; 3 days): 3.2 µM; IC50 ([3]; 3 days): 5 µM; IC50 ([4]; 3 days): 8.9 µM
224 to 225 °C	COc1ccc(-c2ccc3c(c2)/C(=C/Nc2ccc(N4CCN(C)CC4)cc2)C(=O)NC3=O)cc1 (hydrate or solvate) [Example 114, (4Z)-6-(4-methoxyphenyl)-4-({[4-(4-methylpiperazin-1-yl)phenyl]amino}methylene)-isoquinoline-1,3(2H,4H)-dione]	
219 to 220 °C	COc1ccc(CN/C=C2\C(=O)NC(=O)c3ccc(-c4ccsc4)cc32)cc1O (as salt: hydrochloride) [Example 88, (4Z)-4-{[(3-Hydroxy-4-methoxybenzyl)amino]methylene}-6-thien-3-ylisoquinoline-1,3(2H,4H)-dione]	
209 to 210 °C	CCCOc1ccc(CN/C=C2\C(=O)NC(=O)c3ccc(-c4cccc(F)c4)cc32)cc1O (as salt: sodium) [Example 193, (4Z)-6-(3-Fluorophenyl)-4-{[(3-hydroxy-4-propoxybenzyl)amino]methylene}-isoquinoline-1,3(2H,4H)-dione]	
207 to 210 °C	CN1CCN(CCCNC=C2C(=O)NC(=O)c3ccc(-n4cccc4)cc32)CC1 (as salt: TFA) [Example 279, 4-{[3-(4-Methyl-piperazin-1-yl)-propylamino]-methylene}-6-pyrrol-1-yl-4H-isoquinoline-1,3-dione]	
278 to 280 °C	CN1CCN(c2ccc(N/C=C3\C(=O)NC(=O)c4ccc(C(=O)O)cc43)cc2)CC1 [Example 51, (4Z)-4-({[4-(4-Methylpiperazin-1-yl)phenyl]amino}methylene)-1,3-dioxo-1,2,3,4-tetrahydroisoquinoline-6-carboxylic acid]	
166 to 167 °C	O=C1NC(=O)c2ccc(Br)cc2/C1=C/NCc1ccc(OCCO)c(O)c1 (as salt: potassium) [Example 139, (4Z)-6-Bromo-4-({[3-hydroxy-4-(2-hydroxyethoxy)benzyl]amino}methylene)isoquinoline-1,3(2H,4H)-dione]	
> 300 °C	O=C1NC(=O)c2ccccc2/C1=C/Nc1ccc2cn[nH]c2c1 [Example 7, (4Z)-4-[(1H-Indazol-6-ylamino)methylene]isoquinoline-1,3(2H,4H)-dione]	
193 to 194 °C	C[C@@H]1CN(c2ccc(N/C=C3\C(=O)NC(=O)c4ccc(-c5ccc(F)cc5)cc43)cc2)C[C@H](C)N1 (as salt: sodium) [Example 205, (4Z)-4-({[4-(3,5-Dimethylpiperazin-1-yl)phenyl]amino}methylene)-6-(4-fluorophenyl)-isoquinoline-1,3(2H,4H)-dione]	
228 to 229 °C	CN1CCN(c2ccc(N/C=C3\C(=O)NC(=O)c4ccc(-c5ccc(F)cc5)cc43)cc2)CC1 (as salt: sodium) [Example 263, (4Z)-6-(4-Fluorophenyl)-4-({[4-(4-methylpiperazin-1-yl)phenyl]amino}methylene)-isoquinoline-1,3(2H,4H)-dione]	
164 to 165 °C	C[C@@H]1CN(c2ccc(N/C=C3\C(=O)NC(=O)c4ccc(-c5ccsc5)cc43)cc2)C[C@H](C)N1 (as salt: sodium) [Example 206, (4Z)-4-({[4-(3,5-Dimethylpiperazin-1-yl)phenyl]amino}methylene)-6-thien-3-ylisoquinoline-1,3(2H,4H)-dione]	
225 to 235 °C (dec.)	O=C1NC(=O)c2ccc([N+](=O)[O-])cc2/C1=C/Nc1ccc(CN2CCCCC2)cc1 [Example 42, (4Z)-6-Nitro-4-{[(4-piperidin-1-ylmethyl)phenyl]amino}methyleneisoquinoline-1,3(2H,4H)-dione]	
299 to 300 °C	O=C1NC(=O)c2ccc(Br)cc2/C1=C/NCc1cccnc1 [Example 30, (4Z)-6-Bromo-4-{[(pyridin-3-ylmethyl)amino]methylene}isoquinoline-1,3(2H,4H)-dione]	
168 to 169 °C	COc1ccc(-c2ccc3c(c2)/C(=C/Nc2ccc(CN4CCCCC4)cc2)C(=O)NC3=O)cc1 (hydrate or solvate) [Example 116, (4Z)-6-(4-Methoxyphenyl)-4-({[4-(piperidin-1-ylmethyl)phenyl]amino}methylene)-isoquinoline-1,3(2H,4H)-dione]	
239 to 240 °C	COc1ccc(CN/C=C2\C(=O)NC(=O)c3ccc(-c4ccc(F)cc4)cc32)cc1O (as salt: sodium) [Example 208, (4Z)-6-(4-Fluorophenyl)-4-{[(3-hydroxy-4-methoxybenzyl)amino]methylene}iso-quinoline-1,3(2H,4H)-dione]	
190 to 191 °C	CN1CCN(c2ccc(N/C=C3\C(=O)NC(=O)c4ccc(-c5ccoc5)cc43)cc2)CC1 (as salt: sodium) [Example 236, (4Z)-6-(3-Furyl)-4-({[4-(4-methylpiperazin-1-yl)phenyl]amino}methylene)isoquinoline-1,3(2H,4H)-dione]	
151 to 152 °C (dec.)	O=C1NCc2ccccc2/C1=C/Nc1ccc(-c2c[nH]cn2)cc1 [Example 3, (4Z)-4-({[4-(1H-Imidazol-4-yl)phenyl]amino}methylene)-1,4-dihydro-3(2H)-isoquinolinone]	
218 to 220 °C	CN1CCN(c2ccc(N/C=C3\C(=O)NC(=O)c4ccc(-c5ccc(C=O)o5)cc43)cc2)CC1 (hydrate or solvate) [Example 124, 5-[(4Z)-4-({[4-(4-Methylpiperazin-1-yl)phenyl]amino}methylene)-1,3-dioxo-1,2,3,4-tetrahydroisoquinolin-6-yl]-2-furaldehyde]	
265 to 266 °C	COc1ccc(CN/C=C2\C(=O)NC(=O)c3ccc(Cl)cc32)cc1O (as salt: hydrochloride) [Example 67, (4Z)-6-Chloro-4-{[(3-hydroxy-4-methoxybenzyl)amino]methylene}isoquinoline-1,3(2H,4H)-dione]	
166 to 167 °C	O=C1NC(=O)c2ccc(-c3ccsc3)cc2/C1=C/Nc1ccc(CN2CCCCC2)cc1 (hydrate or solvate) [Example 104, (4Z)-4-({[4-(Piperidin-1-ylmethyl)phenyl]amino}methylene)-6-thien-3-ylisoquinoline-1,3(2H,4H)-dione]	
204 to 205 °C	COc1ccc(CN/C=C2\C(=O)NC(=O)c3ccc(-c4cccc(F)c4)cc32)cc1O (as salt: sodium) [Example 209, (4Z)-6-(3-Fluorophenyl)-4-{[(3-hydroxy-4-methoxybenzyl)amino]methylene}iso-quinoline-1,3(2H,4H)-dione]	

SMILES	melting point	other results
COc1ccc(CN/C=C2\C(=O)NC(=O)c3ccccc32)cc1O (as salt: hydrochloride) [Example 98, (4Z)-4-{[(3-Hydroxy-4-methoxybenzyl)amino]methylene}isoquinoline-1,3(2H,4H)-dione]	192 to 193 °C	
